Measured values reported in ChEMBL document CHEMBL5380806, “Cyclopropenone, Cyclopropeniminium Ion, and Cyclopropenethione as Novel Electrophilic Warheads for Potential Target Discovery of Triple-Negative Breast Cancer” (J Med Chem, 2023).
Activity calls are given as the source filed them. The calls are words filed in the database; no cut-off is given here.

Experiments:
MDA-MB-231 [1] = experiment: Induction of apoptosis in human MDA-MB-231 cells assessed as viable cells at 5 uM incubated for 48 hrs by Annexin V-FITC/PI staining based analysis (reference value: 95.14%); format: functional; conditions: read-out: Activity
MDA-MB-231 [2] = experiment: Induction of cell cycle arrest in human MDA-MB-231 cells assessed as G2/M phase cells at 0.156 uM incubated for 24 hrs by PI/RNase staining based flow cytometric analysis relative to control; format: functional
MDA-MB-231 [3] = experiment: Induction of cell cycle arrest in human MDA-MB-231 cells assessed as accumulation of cells at G0/G1 phase at 0.625 uM incubated for 24 hrs by PI/RNase staining based flow cytometric analysis relative to control; format: functional
MDA-MB-231 [4] = experiment: Induction of cell cycle arrest in human MDA-MB-231 cells assessed as G2/M phase cells at 0.625 uM incubated for 24 hrs by PI/RNase staining based flow cytometric analysis relative to control; format: functional
[5] = Drug uptake in human MDA-MB-231 cells at 10 uM incubated for 5 hrs by imaging based microscopic analysis; format: ADME, cell-based; conditions: mda-mb-231, 5 h
[6] = target: T1, Double-stranded RNA-specific adenosine deaminase (Homo sapiens) (UniProt P55265); experiment: Binding affinity to ADAR in human MDA-MB-231 cells at 20 uM incubated for 2 to 5 hrs by pull down based LC-MS analysis; format: cell-based; conditions: time 2-5 hrs
T1 sequence (whole entry): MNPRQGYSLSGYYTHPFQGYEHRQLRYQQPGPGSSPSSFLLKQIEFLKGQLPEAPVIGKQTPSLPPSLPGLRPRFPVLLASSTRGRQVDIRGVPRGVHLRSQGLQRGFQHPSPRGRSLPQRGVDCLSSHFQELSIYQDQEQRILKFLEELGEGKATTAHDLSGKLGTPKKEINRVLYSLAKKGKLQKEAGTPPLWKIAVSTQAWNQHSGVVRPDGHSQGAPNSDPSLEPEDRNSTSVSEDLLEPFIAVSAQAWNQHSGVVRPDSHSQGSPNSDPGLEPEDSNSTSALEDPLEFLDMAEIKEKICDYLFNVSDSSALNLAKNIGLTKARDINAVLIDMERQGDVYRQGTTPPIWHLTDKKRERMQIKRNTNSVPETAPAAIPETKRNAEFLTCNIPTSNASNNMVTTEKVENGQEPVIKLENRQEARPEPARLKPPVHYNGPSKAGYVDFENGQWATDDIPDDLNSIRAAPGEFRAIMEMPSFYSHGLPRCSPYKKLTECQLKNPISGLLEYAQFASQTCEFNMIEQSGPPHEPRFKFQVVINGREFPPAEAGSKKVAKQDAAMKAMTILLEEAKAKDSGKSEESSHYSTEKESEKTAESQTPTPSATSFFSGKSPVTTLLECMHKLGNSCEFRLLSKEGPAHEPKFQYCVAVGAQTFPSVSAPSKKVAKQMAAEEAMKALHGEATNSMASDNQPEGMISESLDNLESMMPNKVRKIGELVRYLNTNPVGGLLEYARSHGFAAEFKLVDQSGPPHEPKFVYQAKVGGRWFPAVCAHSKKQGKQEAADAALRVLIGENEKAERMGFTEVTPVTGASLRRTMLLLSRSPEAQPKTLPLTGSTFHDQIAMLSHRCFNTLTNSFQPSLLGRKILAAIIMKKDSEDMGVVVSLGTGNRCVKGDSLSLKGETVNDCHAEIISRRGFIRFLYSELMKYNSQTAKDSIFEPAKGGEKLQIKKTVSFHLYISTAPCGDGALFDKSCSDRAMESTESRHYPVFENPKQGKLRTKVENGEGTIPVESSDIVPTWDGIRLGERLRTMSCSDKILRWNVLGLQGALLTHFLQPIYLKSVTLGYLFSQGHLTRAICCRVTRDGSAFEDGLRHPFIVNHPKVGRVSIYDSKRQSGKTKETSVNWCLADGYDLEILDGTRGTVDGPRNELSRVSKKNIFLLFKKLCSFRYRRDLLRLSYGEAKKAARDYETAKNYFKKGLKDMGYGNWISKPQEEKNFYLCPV

MDA-MB-231 [7] = experiment: Induction of apoptosis in human MDA-MB-231 cells assessed as early apoptotic cells at 5 uM incubated for 48 hrs by Annexin V-FITC/PI staining based analysis (reference value: 1.98%); format: functional
HEK-293T = experiment: Cytotoxicity against HEK293T cells assessed as inhibition of cell growth incubated for 72 hrs by CCK8 assay; format: toxicity, cell-based; conditions: human
Albumin = Albumin (Homo sapiens, UniProt P02768); experiment: Binding affinity to N-terminal 6his/SUMO-tagged human serum albumin expressed in Escherichia coli BL21 (DE3) cells incubated for 2 to 7 hrs by fluorescence based SDS-PAGE analysis; conditions: time 2-7 hrs
Sequence of Albumin (P02768 whole entry): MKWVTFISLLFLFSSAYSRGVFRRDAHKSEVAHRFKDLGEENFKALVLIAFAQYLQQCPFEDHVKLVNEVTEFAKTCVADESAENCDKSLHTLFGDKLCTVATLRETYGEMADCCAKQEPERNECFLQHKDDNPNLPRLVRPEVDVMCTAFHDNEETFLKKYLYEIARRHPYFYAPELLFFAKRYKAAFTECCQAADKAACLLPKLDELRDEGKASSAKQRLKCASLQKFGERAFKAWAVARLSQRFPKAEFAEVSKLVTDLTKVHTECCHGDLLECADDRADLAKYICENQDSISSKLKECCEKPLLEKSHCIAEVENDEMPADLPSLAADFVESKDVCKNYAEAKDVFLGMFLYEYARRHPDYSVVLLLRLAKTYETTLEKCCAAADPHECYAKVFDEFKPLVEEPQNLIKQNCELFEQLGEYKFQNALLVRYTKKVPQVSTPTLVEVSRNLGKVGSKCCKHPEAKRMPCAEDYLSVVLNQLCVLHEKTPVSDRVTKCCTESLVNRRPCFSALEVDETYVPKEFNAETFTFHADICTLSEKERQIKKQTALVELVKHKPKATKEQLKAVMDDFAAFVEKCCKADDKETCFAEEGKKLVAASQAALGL

Drug uptake [5]: Active
Activity [6]: Active
Activity (Albumin): Active
SMILES: C#CCOc1ccc(-c2cc2=O)cc1
viability at 5 µM (MDA-MB-231 [1]): 67.3%
Activity (MDA-MB-231 [2]): 26.86%
Activity (MDA-MB-231 [3]): 71.89%
Activity (MDA-MB-231 [4]): 12.03%
Activity (MDA-MB-231 [7]): 16.23%
Activity (HEK-293T): Non-Toxic
